In publication PMC9820345, “Metal Complexes of a 5-Nitro-8-Hydroxyquinoline-Proline Hybrid with Enhanced Water Solubility Targeting Multidrug Resistant Cancer Cells” (International Journal of Molecular Sciences, 2022):

Experiments:
HSA = molecular target: T1, HSA (Homo sapiens, UniProt P02768); experiment: Time course of complex-HSA interaction (UV-vis); type: binding; details: complex–HSA (1:1 or 2:1); pH 7.4
T1 construct: purchased Sigma-Aldrich (Darmstadt, Germany) A8763
Method: First, changes in the UV-vis spectra were followed in time in the complex—HSA (1:1 or 2:1) system, and it was concluded that the equilibrium can be reached within ca. 30 min for the RhCp* complex (Figure S25). […] The binding of the RuCym complex to HSA without the release of the bidentate ligand was also confirmed by CZE measurement (Figure S27). Most likely a donor atom of the protein binds at the coordination site of the co-ligand.
An Agilent Cary 8454 diode array spectrophotometer (Santa Clara, CA, USA) was used to obtain UV-vis spectra in the wavelength range 200–1000 nm, while spectra were recorded for the Fe(II)-containing samples using an Avantes (Avantes B.V., Apeldoorn, The Nederlands) AvaSpec-ULS2048CL-EVO spectrometer with an AvaLight-DHc light source and FDP-7UVIR200-2-VAR transmission dip probe. The titrations for the Fe(II)-containing samples were performed in a laboratory glove box (GP(Campus), Jacomex) (O2 content ≤ 1 ppm). The path length (ℓ) was 1 cm in most cases (the actual ℓ is always indicated in the legends of the figures). The concentrations of the ligands and complexes were between 40 and 200 µM, and 0.2 M KNO3 for the organometallic complexes or 0.1 M KCl for the Fe(II/III), Cu(II), and Zn(II) complexes were used to adjust the constant ionic strength. […]

OATP2B1 = molecular target: T2, OATP2B1 (Homo sapiens, UniProt O94956); experiment: OATP uptake assay, OATP2B1; type: cell-based; details: human, 20 μM
T2 construct: expressed in transfected cells; host or cells: A431 epidermoid carcinoma cells
T2 sequence (O94956 1-709): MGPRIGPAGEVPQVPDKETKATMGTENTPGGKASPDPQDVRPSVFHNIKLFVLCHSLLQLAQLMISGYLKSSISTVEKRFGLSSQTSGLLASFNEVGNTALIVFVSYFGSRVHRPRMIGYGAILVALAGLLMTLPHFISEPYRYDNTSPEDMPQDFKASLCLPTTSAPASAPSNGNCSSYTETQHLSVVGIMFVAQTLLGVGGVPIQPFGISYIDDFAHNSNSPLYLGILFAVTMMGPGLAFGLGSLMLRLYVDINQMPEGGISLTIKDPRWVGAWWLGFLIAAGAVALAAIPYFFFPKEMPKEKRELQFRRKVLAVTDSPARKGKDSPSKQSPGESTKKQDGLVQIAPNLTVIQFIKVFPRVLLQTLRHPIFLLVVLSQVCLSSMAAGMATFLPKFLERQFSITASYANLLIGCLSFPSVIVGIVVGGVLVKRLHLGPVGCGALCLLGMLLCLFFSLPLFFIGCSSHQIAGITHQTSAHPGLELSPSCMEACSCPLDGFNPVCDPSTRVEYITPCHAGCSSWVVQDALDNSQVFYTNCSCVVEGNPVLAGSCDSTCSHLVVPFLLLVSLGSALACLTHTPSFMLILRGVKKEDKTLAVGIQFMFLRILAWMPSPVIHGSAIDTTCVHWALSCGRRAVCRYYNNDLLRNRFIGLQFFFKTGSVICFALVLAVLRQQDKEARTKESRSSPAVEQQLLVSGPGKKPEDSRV
Method: Cell lines: A431 cells overexpressing OATP1B1 or OATP2B1, and their mock transfected controls were generated and characterized previously. The cell lines were cultured in DMEM (Gibco, Thermofisher Scientific, Waltham, MA, USA), supplemented with 10% fetal bovine serum, 2 mM L-glutamine, 100 μg/mL streptomycin, and 100 units/mL penicillin at 37 °C and 5% CO2.
OATP uptake assay: Prior to the experiment, A431 cells (8 × 10^4/well) were seeded on 96-well plates in 200 μL cell culture medium. After 16–24 h, the cells were washed with 200 μL PBS, three times and pre-incubated with 20–200 μM HQNO2-L-Pro, or buffer without HQNO2-L-Pro for 5 min at 37 °C in 50 μL HBSS (Hank’s Balanced Salt Solution, pH 7.4; OATP1B1) or uptake buffer (pH 5.5; OATP2B1 [63]). The reaction was started by the addition of disulfopyrene (6,8-dihydroxy-1,3-pyrenedisulfonic acid disodium salt, Sigma, Darmstadt, Germany) at a final concentration of 10 μM (OATP1B1) or pyranine (8-hydroxypyrene-1,3-pyrenetrisulfonic acid trisodium salt, Sigma, Darmstadt, Germany) at a final concentration of 20 μM (OATP2B1), and the cells were further incubated at 37 °C for 10 min (OATP1B1) or 15 min (OATP2B1). The reaction was stopped by removing the supernatant after which the cells were washed three times with ice-cold PBS. Fluorescence (in 200 μL PBS) was determined using an Enspire plate reader (PerkinElmer, Waltham, MA, USA) with excitation/emission wavelengths of 460/510 nm. OATP-dependent transport was calculated by subtracting fluorescence measured in mock transfected cells. Transport activity was calculated based on the fluorescence signal in the absence (100%) of HQNO2-L-Pro. Experiments were repeated in at least three biological replicates.

T1 sequence (P02768 25-609): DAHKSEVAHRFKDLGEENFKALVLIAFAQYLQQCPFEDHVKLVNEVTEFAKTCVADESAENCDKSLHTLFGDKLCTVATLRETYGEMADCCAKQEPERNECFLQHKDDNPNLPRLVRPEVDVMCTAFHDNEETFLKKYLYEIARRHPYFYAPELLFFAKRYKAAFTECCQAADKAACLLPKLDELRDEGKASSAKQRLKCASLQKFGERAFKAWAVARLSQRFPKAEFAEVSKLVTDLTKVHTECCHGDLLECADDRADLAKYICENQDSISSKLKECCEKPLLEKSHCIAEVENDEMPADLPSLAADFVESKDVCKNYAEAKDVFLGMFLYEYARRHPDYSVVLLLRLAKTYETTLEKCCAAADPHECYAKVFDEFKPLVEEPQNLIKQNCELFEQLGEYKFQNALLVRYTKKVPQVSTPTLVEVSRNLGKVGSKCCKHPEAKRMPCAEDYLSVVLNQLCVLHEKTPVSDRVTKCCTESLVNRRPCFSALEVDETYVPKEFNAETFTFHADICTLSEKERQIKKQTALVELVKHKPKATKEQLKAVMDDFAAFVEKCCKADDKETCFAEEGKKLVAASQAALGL

| time to reach equilibrium with HSA (HSA) [min] | activity at 15 min, 10 µM (OATP2B1; A431 cells overexpressing OATP2B1, pH 5.5, probe pyranine, 10 μM, absence of compound = 100%, n = 3, ± SD, read-out: transport activity % OATP2B1) [%] | activity at 15 min, 100 µM (OATP2B1; A431 cells overexpressing OATP2B1, pH 5.5, probe pyranine, 100 μM, absence of compound = 100%, n = 3, ± SD, read-out: transport activity % OATP2B1) [%] | inhibition at 15 min, 100 µM (OATP2B1; probe pyranine, at 100 μM, A431 cells overexpressing OATP2B1, pH 5.5, read-out: inhibition of OATP2B1 function) [%] | Compound |
| --- | --- | --- | --- | --- |
| ≤ 30 | – | – | – | CC1=C(C)[C](C)([Rh]([Cl])[O]c2c(C[NH+]3CCC[C@H]3C(=O)O)cc([N+](=O)[O-])c3cccnc23)C(C)=C1C.[Cl-] [RhCp*-HQNO2-L-Pro, [RhCp*(HQNO2-L-Pro)Cl]Cl] |
| – | 98.2 ± 5.5 | 83.3 ± 9.7 | < 20 | O=C(O)[C@@H]1CCCN1Cc1cc([N+](=O)[O-])c2cccnc2c1O [HQNO2-L-Pro, (2S)-1-((8-hydroxy-5-nitroquinolin-7-yl)methyl)pyrrolidin-1-ium-2-carboxylate] |
